{"source": "ChEMBL document CHEMBL1201862", "about": "“PubChem BioAssay data set” (2004)", "key": {"BJ [1]": {"system": "BJ", "experiment": "cytotoxicity toward BJ-TERT fibroblasts, dose response, cell-based, RAS-independent, luminescence (AID 1933)", "type": "functional", "settings": "Homo sapiens"}, "BJ [2]": {"system": "BJ", "experiment": "cells", "type": "functional, cell-based", "settings": "Homo sapiens"}, "[3]": {"target": "Luciferin 4-monooxygenase (Photinus pyralis, UniProt P08659)", "sequence (P08659 whole entry)": "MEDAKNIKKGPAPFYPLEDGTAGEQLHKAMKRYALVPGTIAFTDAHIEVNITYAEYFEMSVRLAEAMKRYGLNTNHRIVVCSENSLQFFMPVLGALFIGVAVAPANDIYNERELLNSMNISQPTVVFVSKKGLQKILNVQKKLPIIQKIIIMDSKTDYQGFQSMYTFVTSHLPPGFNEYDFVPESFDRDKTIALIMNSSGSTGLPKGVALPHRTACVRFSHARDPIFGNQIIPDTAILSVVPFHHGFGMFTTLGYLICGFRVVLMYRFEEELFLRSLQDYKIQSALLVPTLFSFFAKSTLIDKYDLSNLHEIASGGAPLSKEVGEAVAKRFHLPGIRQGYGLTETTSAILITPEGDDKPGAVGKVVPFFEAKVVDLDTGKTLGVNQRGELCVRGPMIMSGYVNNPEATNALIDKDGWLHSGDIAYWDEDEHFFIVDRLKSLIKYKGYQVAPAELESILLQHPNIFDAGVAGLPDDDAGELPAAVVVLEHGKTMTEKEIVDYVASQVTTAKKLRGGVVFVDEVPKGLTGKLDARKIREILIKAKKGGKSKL", "experiment": "firefly luciferase enzyme inhibitors, dose response, biochemical, luminescence (AID 1891)"}, "[4]": {"experiment": "Luminescence Cell-Based Dose Confirmation HTS to Identify Inhibitors of Platelet Dense Granule Release. [Related pubchem assays: 1663 (Primary HTS), 1678 (Summary of Project)]", "type": "functional"}, "BJ [5]": {"system": "BJ", "experiment": "cytotoxicity toward BJ-TERT-LT-ST fibroblasts, dose response, cell-based, RAS-independent, luminescence (AID 1935);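 note: BJ fibroblasts immortalized with TERT plus LT and ST oncogenes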", "type": "functional", "settings": "Homo sapiens"}, "[6]": {"experiment": "cytotoxicity toward DRD oncogenic fibroblasts, dose response, cell-based, non-viral oncogenic, luminescence (AID 1934)", "type": "functional", "settings": "Homo sapiens"}, "Jurkat": {"system": "Jurkat", "experiment": "antigen receptor-induced NF-kB inhibitors, dose response, Jurkat, luciferase reporter, luminescence, B- and T-cell (AID 489004);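 note: NF-kB luciferase reporter Jurkat cells stimulated with PMA plus ionomycin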", "type": "functional, cell-based", "settings": "Homo sapiens"}, "[7]": {"experiment": "cytotoxicity in HEK-293T NF-kB-Luc cells, dose response, cytotoxicity control for B/T-cell NF-kB inhibitor project, cell-based, uHTS hits (AID 489019);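 note: IC50 reflects cytotoxicity as loss of cell viability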", "type": "functional"}, "BJ [8]": {"system": "BJ", "experiment": "cytotoxicity toward Ras-transformed BJeLR fibroblasts, dose response, cell-based, alamar blue fluorescence, cherrypicked samples (AID 2631);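 note: confirmatory dose-response assay in RAS-dependent BJ fibroblasts engineered with TERT, LT and ST, with cytotoxicity read by fluorescence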", "type": "functional", "settings": "Homo sapiens"}, "[9]": {"experiment": "Shn3 3'UTR reporter inhibitors, dose response, cell-based, Clone20 osteoblasts, firefly luciferase, cherry-picked (AID 624132)", "type": "functional"}, "[10]": {"experiment": "HepG2 cell cytotoxicity, dose response, cytotoxicity control for Shn3 inhibitor project, CellTiter-Glo, cherry-picked (AID 624134)", "type": "functional, cell-based"}, "[11]": {"experiment": "inhibitors of HIV Env-driven cell fusion, dose response, cherry-pick (AID 652057)", "type": "functional, cell-based"}, "[12]": {"experiment": "CEM21 lymphoblast cell cytotoxicity, dose response, cytotoxicity control for viral fusion inhibitor project, CellTiter-Glo luminescence, cherry-picked (AID 652042);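 note: potency for signal decrease meaning cytotoxicity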", "type": "functional, cell-based"}, "[13]": {"experiment": "ZM109 Env clade C HIV-1 fusion inhibitors, dose response, HeLa effector, CEM target cells, luciferase, cherry-pick (AID 652058)", "type": "functional, cell-based"}, "[14]": {"experiment": "off-target signal loss in HeLa-CEM21 co-culture – HeLa F-luc CTL cells, cherry-picked, counter-screen for HIV-1 Env fusion inhibitor project, dose response (AID 652040);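 note: potency for signal decrease marking cytotoxic or nonspecific inhibition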", "type": "functional, cell-based"}, "[15]": {"experiment": "inhibitors of clade B AD8 Env fusion, dose response, cell-based, cherry-pick (AID 652062);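 note: potency is for inhibitors of fusion seen as a drop in luminescence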", "type": "functional"}, "[16]": {"experiment": "A549 cell cytotoxicity, dose response, cytotoxicity control, plate reader, cherry-pick, antagonist series (AID 743412)", "type": "functional, cell-based"}, "[17]": {"experiment": "HepG2 cell cytotoxicity, dose response, cytotoxicity control, plate reader, cherry-pick, antagonist series (AID 743416)", "type": "functional, cell-based"}, "[18]": {"experiment": "LGR2 antagonists, dose response, cell-based, HEK293, CRE-luciferase reporter, cherry pick, set 2 (AID 743343);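 note: transfected cells were stimulated with diluted bursicon conditioned medium after compound addition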", "type": "functional"}, "[19]": {"experiment": "MC4R antagonists, dose response, counter-screen for LGR2 antagonist project, cell-based, plate reader, cherry pick (AID 743444);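 note: transfected HEK 293 cells stimulated with alpha-MSH peptide; potency of inhibitors of the alpha-MSH evoked signal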", "type": "functional"}, "[20]": {"experiment": "HEK293 cell cytotoxicity, dose response, cytotoxicity control, plate reader, cherry-picked samples (AID 743446)", "type": "functional, cell-based"}, "[21]": {"target": "T1, Mitochondrial peptide methionine sulfoxide reductase (Bos taurus, UniProt P54149)", "T1 sequence (P54149 whole entry)": "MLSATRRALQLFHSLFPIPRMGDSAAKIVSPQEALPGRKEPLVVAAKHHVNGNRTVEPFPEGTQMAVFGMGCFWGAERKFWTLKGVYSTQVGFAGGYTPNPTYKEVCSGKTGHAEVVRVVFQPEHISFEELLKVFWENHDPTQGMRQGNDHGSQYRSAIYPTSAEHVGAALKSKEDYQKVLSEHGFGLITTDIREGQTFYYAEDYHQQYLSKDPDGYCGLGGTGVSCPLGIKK", "experiment": "Absorbance-based biochemical high throughput dose response assay for activators of Methionine sulfoxide reductase A (MsrA).", "type": "functional"}, "H9c2": {"system": "H9c2", "experiment": "cells", "type": "functional, cell-based", "settings": "Rattus norvegicus, H9c2, Myocardium"}, "Melanocortin receptor 4": {"target": "Melanocortin receptor 4 (Homo sapiens, UniProt P32245)", "sequence (P32245 whole entry)": "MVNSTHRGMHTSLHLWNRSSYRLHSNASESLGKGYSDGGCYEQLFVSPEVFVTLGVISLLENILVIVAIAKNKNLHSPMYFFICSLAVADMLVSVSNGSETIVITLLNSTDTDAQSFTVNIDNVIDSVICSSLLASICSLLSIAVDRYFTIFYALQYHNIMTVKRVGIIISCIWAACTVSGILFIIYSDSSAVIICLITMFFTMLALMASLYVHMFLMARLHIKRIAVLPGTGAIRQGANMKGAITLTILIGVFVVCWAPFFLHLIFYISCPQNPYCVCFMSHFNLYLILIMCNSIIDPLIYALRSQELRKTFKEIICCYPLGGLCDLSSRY", "type": "functional, cell-based"}}, "note": "The source made the active and inactive calls."}
{"compound": "COc1ccc(-c2cc3nc(C)n(N)c(=O)c3s2)cc1", "values": [{"measurement": "EC50", "setting": "BJ [1]", "result": "3.64 µM (inconclusive)"}, {"measurement": "EC50", "setting": "BJ [2]", "result": "2.27 µM (active)"}, {"measurement": "EC50", "setting": "[3]", "result": "0.263 µM (active)"}, {"measurement": "EC50", "setting": "[4]", "result": "0.443 µM (active)"}, {"measurement": "EC50", "setting": "BJ [5]", "result": "10.6 µM (active)"}, {"measurement": "EC50", "setting": "[6]", "result": "2.15 µM (active)"}, {"measurement": "IC50", "setting": "Jurkat", "result": "0.47 µM (active)"}, {"measurement": "IC50", "setting": "[7]", "result": "> 80 µM (inactive)"}, {"measurement": "EC50", "setting": "BJ [8]", "result": "> 133 µM (inactive)"}, {"measurement": "AC50", "setting": "[9]", "result": "1.13 µM (active)"}, {"measurement": "AC50", "setting": "[10]", "result": "4.71 µM (active)"}, {"measurement": "AC50", "setting": "[11]", "result": "0.95 µM (active)"}, {"measurement": "AC50", "setting": "[12]", "result": "4.71 µM (active)"}, {"measurement": "AC50", "setting": "[13]", "result": "8.99 µM (active)"}, {"measurement": "AC50", "setting": "[14]", "result": "2.33 µM (active)"}, {"measurement": "AC50", "setting": "[15]", "result": "1.51 µM (active)"}, {"measurement": "AC50", "setting": "[16]", "result": "3.1 µM (active)"}, {"measurement": "AC50", "setting": "[17]", "result": "3.72 µM (active)"}, {"measurement": "AC50", "setting": "[18]", "result": "0.26 µM (active)"}, {"measurement": "AC50", "setting": "[19]", "result": "0.289 µM (active)"}, {"measurement": "AC50", "setting": "[20]", "result": "3.01 µM (active)"}]}
{"compound": "Cc1nc2c(nc1C)C(=O)c1ccccc1C2=O", "values": [{"measurement": "EC50", "setting": "[21]", "result": "95.6 µM (inactive)"}]}
{"compound": "COc1cccc(-c2cnc3c(NC=O)cc(-c4cccc(C(=O)N(C)C)c4)cn23)c1", "values": [{"measurement": "IC50", "setting": "H9c2", "result": "> 79 µM (inactive)"}, {"measurement": "EC50", "setting": "Melanocortin receptor 4", "result": "> 89.2 µM (inactive)"}]}
{"compound": "COc1cccc(-c2cnc3c(NC(C)=O)cc(-c4cc(F)ccc4OC)cn23)c1", "values": [{"measurement": "EC50", "setting": "Melanocortin receptor 4", "result": "> 89.2 µM (inactive)"}]}
{"compound": "COc1ccccc1-c1cc(NC=O)c2ncc(-c3ccc(F)cc3)n2c1", "values": [{"measurement": "EC50", "setting": "Melanocortin receptor 4", "result": "> 9.91 µM (active)"}]}
